This assay relates to BDF1 mice, P388 leukemia ip, median survival T/C. The experiment in a line: NCI In Vivo Anticancer Drug Screen. Data for tumor model P388 Leukemia (intraperitoneal) in B6D2F1 (BDF1) mice. To be noted: endpoint: median survival time, higher = longer survival. The procedure, abridged: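 Read-out is survival of treated animals expressed relative to the vehicle group, as a T/C ratio.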

[1] abbreviates: dose: 100.0 mg/kg/injection, schedule: Q01DX009 (ip), vehicle: other.
The mark [2] stands for this setting: dose: 200.0 mg/kg/injection, schedule: Q01DX009 (ip), vehicle: other.
The mark [3] stands for this setting: dose: 50.0 mg/kg/injection, schedule: Q04DX003 (ip), vehicle: saline.
The mark [4] stands for this setting: dose: 100.0 mg/kg/injection, schedule: Q04DX003 (ip), vehicle: saline.
Where [5] appears, read: dose: 200.0 mg/kg/injection, schedule: Q04DX003 (ip), vehicle: saline.
The mark [6] stands for this setting: dose: 50.0 mg/kg/injection, schedule: Q01DX009 (ip), vehicle: saline with Tween-80.
[7] abbreviates: dose: 100.0 mg/kg/injection, schedule: Q01DX009 (ip), vehicle: saline with Tween-80.
Setting [8] is: dose: 200.0 mg/kg/injection, schedule: Q01DX009 (ip), vehicle: saline with Tween-80.
Setting [9] is: dose: 200.0 mg/kg/injection, schedule: Q01DX009 (ip), vehicle: saline.

Molecules are shown by their SMILES. Toxic doses and inconclusive results are not listed.

Regarding `COc1cc2cc(c1Cl)NC(=O)/C=C/C(C)=C/[C@H](C)[C@@H]1C[C@@](O)(NC(=O)O1)[C@H](OC)C=C/C=C(\C)C2`, the T/C reads like this: (dose: 1.6 micrograms/kg/injection, schedule: Q01DX009 (ip), vehicle: saline + alcohol) 104 % of control; (dose: 3.1 micrograms/kg/injection, schedule: Q01DX009 (ip), vehicle: saline + alcohol) 95 % of control; (dose: 6.2 micrograms/kg/injection, schedule: Q01DX009 (ip), vehicle: saline + alcohol) 87 % of control; (dose: 25.0 micrograms/kg/injection, schedule: Q01DX009 (ip), vehicle: saline + alcohol) 108 % of control; (dose: 50.0 micrograms/kg/injection, schedule: Q01DX009 (ip), vehicle: saline + alcohol) 120 % of control; (dose: 100.0 micrograms/kg/injection, schedule: Q01DX009 (ip), vehicle: saline + alcohol) 120 % of control. Moreover, the T/C (dose: 200.0 micrograms/kg/injection, schedule: Q01DX009 (ip), vehicle: saline + alcohol) was 104 % of control.

Consider `CN(C)c1ccc(CC2Cc3ccccc3C2=O)cc1` (stereo not drawn), for which the T/C is, setting by setting: under setting [1], 104 % of control; (dose: 100.0 mg/kg/injection, schedule: Q04DX003 (ip), vehicle: saline with Tween-80) 90 % of control; under setting [2], 108 % of control; (dose: 200.0 mg/kg/injection, schedule: Q04DX003 (ip), vehicle: saline with Tween-80) 100 % of control; (dose: 400.0 mg/kg/injection, schedule: Q04DX003 (ip), vehicle: saline with Tween-80) 95 % of control.

Turning to `CC([NH-])=O.CC([NH-])=O.[Pt+2]`, the T/C (dose: 25.0 mg/kg/injection, schedule: Q01DX009 (ip), vehicle: water) was 96 % of control; the T/C (dose: 50.0 mg/kg/injection, schedule: Q01DX009 (ip), vehicle: water) is 104 % of control; the T/C (dose: 100.0 mg/kg/injection, schedule: Q01DX009 (ip), vehicle: water) is 102 % of control; the T/C (dose: 200.0 mg/kg/injection, schedule: Q01DX009 (ip), vehicle: water) is 107 % of control; the T/C (dose: 300.0 mg/kg/injection, schedule: Q01DX009 (ip), vehicle: water) was 112 % of control.

Turning to `CN(C)P1(=O)OCCN1N` (stereo not drawn), the T/C reads like this: under setting [3], 109 % of control; under setting [4], 109 % of control; under setting [5], 104 % of control.

For the compound `COCn1cnc2c(F)ncnc21`, the T/C reads like this: (dose: 6.25 mg/kg/injection, schedule: Q01DX009 (ip), vehicle: Klucel (hydroxypropylcellulose) (HPC)) 86 % of control; (dose: 6.25 mg/kg/injection, schedule: Q04DX003 (ip), vehicle: saline) 95 % of control; (dose: 12.5 mg/kg/injection, schedule: Q01DX009 (ip), vehicle: Klucel (hydroxypropylcellulose) (HPC)) 90 % of control; (dose: 12.5 mg/kg/injection, schedule: Q04DX003 (ip), vehicle: saline) 109 % of control; (dose: 25.0 mg/kg/injection, schedule: Q01DX009 (ip), vehicle: Klucel (hydroxypropylcellulose) (HPC)) 86 % of control; (dose: 25.0 mg/kg/injection, schedule: Q04DX003 (ip), vehicle: saline) 100 % of control.

Turning to `C[C@@H]1C[C@@H]([C@@H](CC2CC(=O)NC(=O)C2)OC(=O)CC(=O)c2ccccc2)C(=O)[C@@H](C)C1`, the T/C (dose: 11.0 mg/kg/injection, schedule: Q01DX009 (ip), vehicle: saline with Tween-80) is 120 % of control; the T/C (dose: 25.0 mg/kg/injection, schedule: Q01DX009 (ip), vehicle: saline with Tween-80) is 165 % of control; the T/C (dose: 25.0 mg/kg/injection, schedule: Q04DX003 (ip), vehicle: saline with Tween-80) is 109 % of control; the T/C (dose: 37.5 mg/kg/injection, schedule: Q01DX009 (ip), vehicle: saline with Tween-80) was 160 % of control; the T/C under setting [6] is 95 % of control; the T/C (dose: 50.0 mg/kg/injection, schedule: Q04DX003 (ip), vehicle: saline with Tween-80) is 118 % of control.

Regarding `CC(C)COC(=O)CN(CC(=O)OCC(C)C)c1ccccc1`, the T/C is 95 % of control under setting [7]; 100 % of control under setting [8]; 110 % of control (dose: 400.0 mg/kg/injection, schedule: Q01DX009 (ip), vehicle: saline with Tween-80).

On to `O=c1[nH][nH]c(=O)n1O`, for which the T/C was 100 % of control under setting [9] and 95 % of control (dose: 400.0 mg/kg/injection, schedule: Q01DX009 (ip), vehicle: saline).

`Cc1nnc(NC2=NCCO2)s1`: the T/C runs as follows: under setting [3], 86 % of control; under setting [4], 90 % of control; under setting [5], 90 % of control.

Turning to `CC(=O)CC(C)(C)c1ccccc1`, the T/C reads like this: (dose: 25.0 mg/kg/injection, schedule: Q01DX009 (ip), vehicle: saline) 118 % of control; (dose: 50.0 mg/kg/injection, schedule: Q01DX009 (ip), vehicle: saline) 111 % of control; under setting [3], 105 % of control; under setting [4], 105 % of control; under setting [9], 93 % of control; under setting [5], 121 % of control. Moreover, under “dose: 400.0 mg/kg/injection, schedule: Q04DX003 (ip), vehicle: saline”, the T/C was 102 % of control.

In the case of `CCOC(=O)C1=C(C)NC(C)=C(C(=O)OCC)C1c1cc(OC)c(OC)c(OC)c1`, the T/C runs as follows: (dose: 25.0 mg/kg/injection, schedule: Q01DX009 (ip), vehicle: other) 100 % of control; (dose: 50.0 mg/kg/injection, schedule: Q01DX009 (ip), vehicle: other) 95 % of control; under setting [1], 96 % of control; under setting [2], 95 % of control; (dose: 400.0 mg/kg/injection, schedule: Q01DX009 (ip), vehicle: other) 87 % of control.

Consider `Cc1ccc(/C(C#N)=C2C=C(Br)/C(=N\O)C=C/2Cl)cc1`, for which the T/C (dose: 28.12 mg/kg/injection, schedule: Q04DX003 (ip), vehicle: Klucel (hydroxypropylcellulose) (HPC)) was 100 % of control; the T/C (dose: 56.25 mg/kg/injection, schedule: Q01DX009 (ip), vehicle: Klucel (hydroxypropylcellulose) (HPC)) is 115 % of control; the T/C (dose: 56.25 mg/kg/injection, schedule: Q04DX003 (ip), vehicle: Klucel (hydroxypropylcellulose) (HPC)) is 100 % of control; the T/C (dose: 100.0 mg/kg/injection, schedule: Q01DX001 (ip), vehicle: Klucel (hydroxypropylcellulose) (HPC)) was 90 % of control; the T/C (dose: 112.5 mg/kg/injection, schedule: Q01DX009 (ip), vehicle: Klucel (hydroxypropylcellulose) (HPC)) was 110 % of control; the T/C (dose: 112.5 mg/kg/injection, schedule: Q04DX003 (ip), vehicle: Klucel (hydroxypropylcellulose) (HPC)) is 100 % of control. For the same compound, the T/C is, setting by setting: (dose: 150.0 mg/kg/injection, schedule: Q01DX009 (ip), vehicle: Klucel (hydroxypropylcellulose) (HPC)) 100 % of control; (dose: 170.0 mg/kg/injection, schedule: Q04DX003 (ip), vehicle: Klucel (hydroxypropylcellulose) (HPC)) 105 % of control; (dose: 200.0 mg/kg/injection, schedule: Q01DX001 (ip), vehicle: Klucel (hydroxypropylcellulose) (HPC)) 104 % of control; (dose: 225.0 mg/kg/injection, schedule: Q01DX009 (ip), vehicle: Klucel (hydroxypropylcellulose) (HPC)) 105 % of control; (dose: 255.0 mg/kg/injection, schedule: Q04DX003 (ip), vehicle: Klucel (hydroxypropylcellulose) (HPC)) 110 % of control; (dose: 335.0 mg/kg/injection, schedule: Q01DX009 (ip), vehicle: Klucel (hydroxypropylcellulose) (HPC)) 100 % of control. Besides, the T/C (dose: 380.0 mg/kg/injection, schedule: Q04DX003 (ip), vehicle: Klucel (hydroxypropylcellulose) (HPC)) was 100 % of control.

For `O=c1[nH]cnc2c1nnn2C1OC(CO)C(O)C1O` (stereo not drawn), the T/C by setting is: (dose: 50.0 mg/kg/injection, schedule: Q01DX006 (ip), vehicle: saline) 95 % of control; (dose: 130.0 mg/kg/injection, schedule: Q01DX006 (ip), vehicle: saline) 117 % of control.

Take `CCOC(=O)C(=O)NCc1cnccn1`: the T/C by setting is: (dose: 100.0 mg/kg/injection, schedule: Q04DX003 (ip), vehicle: water) 104 % of control; (dose: 200.0 mg/kg/injection, schedule: Q04DX003 (ip), vehicle: water) 104 % of control; (dose: 400.0 mg/kg/injection, schedule: Q04DX003 (ip), vehicle: water) 100 % of control.

On to `COc1ccc(/C=C/c2c[n+]([O-])ccc2[N+](=O)[O-])cc1`, for which the T/C reads like this: under setting [6], 105 % of control; under setting [7], 109 % of control; under setting [8], 119 % of control.

The values are drawn from PubChem BioAssay AID328 (DTP/NCI, 2004).
